Measured values reported in ChEMBL document CHEMBL3885861, “Open TG-GATES”.

Species on record: Rattus norvegicus
Assay: Open TG-GATES - Regimen: Single
Assay type: toxicity, organism-based, Sprague-Dawley
Parameters: regimen Single, gender Male, age 6 weeks
Conditions: in vivo, sc, 2 mg/kg, route subcutaneous injection, dose 2000 ug/Kg, dose level High; for APTT / Bas / Eos / Fbg / Hb / Ht / Lym / MCH / MCHC / MCV / Mono / Neu / PT / Plat / RBC / Ret / WBC: tissue Blood; for KIDNEY_L / KIDNEY_R / KIDNEY_TOTAL: tissue Kidney; for LIVER: tissue Liver; for A/G / ALP / ALT / AST / BUN / CRE / Ca / Cl / DBIL / GLC / IP / K / LDH / Na / PL / RALB / TBIL / TC / TG / TP / gamma-GTP: tissue Plasma

CC(=O)O.N=C(N)NCCC[C@@H](NC(=O)[C@@H]1CCCN1C(=O)[C@@H]1CSSCCC(=O)N[C@@H](Cc2ccc(O)cc2)C(=O)N[C@@H](Cc2ccccc2)C(=O)N[C@@H](CCC(N)=O)C(=O)N[C@@H](CC(N)=O)C(=O)N1)C(=O)NCC(N)=O [DESMOPRESSIN ACETATE]
TERMINAL_BW (3 h): 202.2 g | APTT (3 h): 18 s | Bas (3 h): 0% | Eos (3 h): 1.6% | Fbg (3 h): 237.8 mg/dL | Hb (3 h): 12.9 g/dL | Ht (3 h): 39.6% | Lym (3 h): 64.8% | MCH (3 h): 21.3 pg | MCHC (3 h): 32.6% | MCV (3 h): 65.5 fL | Mono (3 h): 10.6% | Neu (3 h): 22.8% | PT (3 h): 12.3 s | Plat (3 h): 117.4 x10_4/uL | RBC (3 h): 606.2 x10_4/ul | Ret (3 h): 9.2% | WBC (3 h): 85.4 x10_2/uL | KIDNEY_L (3 h): 0.9 g | KIDNEY_R (3 h): 1 g | KIDNEY_TOTAL (3 h): 1.9 g | LIVER (3 h): 9.5 g | A/G (3 h): 2 | ALP (3 h): 1436 IU/L | ALT (3 h): 38.6 IU/L | AST (3 h): 70.8 IU/L | BUN (3 h): 22.6 mg/dL | CRE (3 h): 0.4 mg/dL | Ca (3 h): 11.7 mg/dL | Cl (3 h): 97 meq/L | DBIL (3 h): 0.01 mg/dL | GLC (3 h): 217 mg/dL | IP (3 h): 9.5 mg/dL | K (3 h): 4.6 meq/L | LDH (3 h): 134.8 IU/L | Na (3 h): 130.6 meq/L | PL (3 h): 157.4 mg/dL | RALB (3 h): 4 g/dL | TBIL (3 h): 0.048 mg/dL | TC (3 h): 82.4 mg/dL | TG (3 h): 89 mg/dL | TP (3 h): 5.9 g/dL | gamma-GTP (3 h): 0.8 IU/L | TERMINAL_BW (6 h): 204.1 g | APTT (6 h): 18.4 s | Bas (6 h): 0% | Eos (6 h): 1.2% | Fbg (6 h): 247.9 mg/dL | Hb (6 h): 13.2 g/dL | Ht (6 h): 40% | Lym (6 h): 65.8% | MCH (6 h): 21.8 pg | MCHC (6 h): 33% | MCV (6 h): 66 fL | Mono (6 h): 11.8% | Neu (6 h): 21% | PT (6 h): 12.1 s | Plat (6 h): 120.4 x10_4/uL | RBC (6 h): 606.4 x10_4/ul | Ret (6 h): 10.1% | WBC (6 h): 106 x10_2/uL | KIDNEY_L (6 h): 1 g | KIDNEY_R (6 h): 1 g | KIDNEY_TOTAL (6 h): 2 g | LIVER (6 h): 9.3 g | A/G (6 h): 1.9 | ALP (6 h): 1390.6 IU/L | ALT (6 h): 36 IU/L | AST (6 h): 64 IU/L | BUN (6 h): 31.6 mg/dL | CRE (6 h): 0.4 mg/dL | Ca (6 h): 11.1 mg/dL | Cl (6 h): 96.2 meq/L | DBIL (6 h): 0.016 mg/dL | GLC (6 h): 211.2 mg/dL | IP (6 h): 10.6 mg/dL | K (6 h): 4.5 meq/L | LDH (6 h): 122.2 IU/L | Na (6 h): 131 meq/L | PL (6 h): 157.4 mg/dL | RALB (6 h): 3.9 g/dL | TBIL (6 h): 0.084 mg/dL | TC (6 h): 92.4 mg/dL | TG (6 h): 49.4 mg/dL | TP (6 h): 5.9 g/dL | gamma-GTP (6 h): 1 IU/L | TERMINAL_BW (9 h): 202.3 g | APTT (9 h): 17.8 s | Bas (9 h): 0% | Eos (9 h): 1% | Fbg (9 h): 249 mg/dL | Hb (9 h): 12.8 g/dL | Ht (9 h): 39.2% | Lym (9 h): 74.4% | MCH (9 h): 20.9 pg | MCHC (9 h): 32.7% | MCV (9 h): 63.9 fL | Mono (9 h): 7.4% | Neu (9 h): 17% | PT (9 h): 12.5 s | Plat (9 h): 124.6 x10_4/uL | RBC (9 h): 613.2 x10_4/ul | Ret (9 h): 8.9% | WBC (9 h): 98.6 x10_2/uL | KIDNEY_L (9 h): 1 g | KIDNEY_R (9 h): 1 g | KIDNEY_TOTAL (9 h): 2 g | LIVER (9 h): 8.6 g | A/G (9 h): 2.2 | ALP (9 h): 1194.8 IU/L | ALT (9 h): 29.6 IU/L | AST (9 h): 64.2 IU/L | BUN (9 h): 31.8 mg/dL | CRE (9 h): 0.3 mg/dL | Ca (9 h): 11.1 mg/dL | Cl (9 h): 98.6 meq/L | DBIL (9 h): 0.018 mg/dL | GLC (9 h): 197.4 mg/dL | IP (9 h): 10.7 mg/dL | K (9 h): 4.9 meq/L | LDH (9 h): 129.4 IU/L | Na (9 h): 132.8 meq/L | PL (9 h): 137.6 mg/dL | RALB (9 h): 3.8 g/dL | TBIL (9 h): 0.08 mg/dL | TC (9 h): 77.8 mg/dL | TG (9 h): 40.6 mg/dL | TP (9 h): 5.6 g/dL | gamma-GTP (9 h): 0.4 IU/L | TERMINAL_BW (24 h): 220.4 g | APTT (24 h): 16.2 s | Bas (24 h): 0% | Eos (24 h): 1% | Fbg (24 h): 236.7 mg/dL | Hb (24 h): 12.6 g/dL | Ht (24 h): 38.7% | Lym (24 h): 66.8% | MCH (24 h): 21.1 pg | MCHC (24 h): 32.7% | MCV (24 h): 64.6 fL | Mono (24 h): 10.6% | Neu (24 h): 21.2% | PT (24 h): 12.4 s | Plat (24 h): 121 x10_4/uL | RBC (24 h): 599 x10_4/ul | Ret (24 h): 9.6% | WBC (24 h): 88.8 x10_2/uL | KIDNEY_L (24 h): 1 g | KIDNEY_R (24 h): 1 g | KIDNEY_TOTAL (24 h): 2.1 g | LIVER (24 h): 10.4 g | A/G (24 h): 1.9 | ALP (24 h): 1283.2 IU/L | ALT (24 h): 33.4 IU/L | AST (24 h): 60 IU/L | BUN (24 h): 20 mg/dL | CRE (24 h): 0.3 mg/dL | Ca (24 h): 11.1 mg/dL | Cl (24 h): 103.6 meq/L | DBIL (24 h): 0 mg/dL | GLC (24 h): 195.2 mg/dL | IP (24 h): 8.4 mg/dL | K (24 h): 5.4 meq/L | LDH (24 h): 128.4 IU/L | Na (24 h): 136.4 meq/L | PL (24 h): 150 mg/dL | RALB (24 h): 3.5 g/dL | TBIL (24 h): 0.014 mg/dL | TC (24 h): 81.4 mg/dL | TG (24 h): 110 mg/dL | TP (24 h): 5.3 g/dL | gamma-GTP (24 h): 1.4 IU/L
